# Assay results as given in paper PMC10504751, “Chalcone/1,3,4-Oxadiazole/Benzimidazole hybrids as novel anti-proliferative agents inducing apoptosis and inhibiting EGFR & BRAFV^600E” (BMC Chemistry, 2023).
# Where two headings read alike, the source gives them in different places.
# How the values were obtained:
# Assay in all cases: NCI one-dose SRB anti-proliferative screen
# Type in all cases: cell-based
# [1] = test system: HCC-2998; details: Homo sapiens, read-out: Cell growth inhibition %
# Outline: (§1)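 Compounds were tested at a single 10 µM concentration within a 60-cell-line panel covering nine tumour subpanels. Growth was read colorimetrically by sulforhodamine B staining.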
# [2] = test system: NCI-H226; details: Homo sapiens, read-out: Cell growth inhibition %
# Outline: as §1
# [3] = test system: KM12; details: Homo sapiens, read-out: Cell growth inhibition %
# Outline: as §1
# [4] = test system: ACHN; details: Homo sapiens, read-out: Cell growth inhibition %
# Outline: as §1
# [5] = test system: NCI-H322M; details: Homo sapiens, read-out: Cell growth inhibition %
# Outline: as §1
# [6] = test system: SW-620; details: Homo sapiens, read-out: Cell growth inhibition %
# Outline: as §1
# [7] = test system: LOX IMVI; details: Homo sapiens; for inhibition at 10 µM: read-out: Cell growth inhibition %; for activity at 10 µM: LOX IMVI (Melanoma), 10 µM one dose, read-out: Growth Percent
# Outline: as §1
# [8] = test system: HL-60(TB); details: Homo sapiens, read-out: Cell growth inhibition %
# Outline: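 Activity reflects a single-point exposure at 10 µM, with cell mass determined by a sulforhodamine B dye assay.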
# [9] = test system: SF-295; details: Homo sapiens, read-out: Cell growth inhibition %
# Outline: as §1
# [10] = test system: SNB-19; details: Homo sapiens, read-out: Cell growth inhibition %
# Outline: as §1
# [11] = test system: SR; details: Homo sapiens, read-out: Cell growth inhibition %
# Outline: as §1
# [12] = test system: SK-MEL-5; details: Homo sapiens, read-out: Cell growth inhibition %
# Outline: as §1
# [13] = test system: OVCAR-3; details: Homo sapiens, read-out: Cell growth inhibition %
# Outline: as §1
# [14] = test system: MDA-MB-468; details: Homo sapiens, read-out: Cell growth inhibition %
# Outline: as §1
# [15] = test system: HT29; details: Homo sapiens, HT-29, read-out: Cell growth inhibition %
# Outline: as §1
# [16] = test system: TK-10; details: Homo sapiens, read-out: Cell growth inhibition %
# Outline: as §1
# [17] = test system: MDA-MB-231/ATCC; details: Homo sapiens, read-out: Cell growth inhibition %
# Outline: as §1
# [18] = test system: SF-268; details: Homo sapiens, read-out: Cell growth inhibition %
# Outline: as §1
# [19] = test system: NCI/ADR-RES; details: Homo sapiens, read-out: Cell growth inhibition %
# Outline: as §1
# [20] = test system: OVCAR-4; details: Homo sapiens, read-out: Cell growth inhibition %
# Outline: as §1
# [21] = test system: A498; details: Homo sapiens, read-out: Cell growth inhibition %
# Outline: as §1
# [22] = test system: NCI-H23; details: Homo sapiens, read-out: Cell growth inhibition %
# Outline: as §1
# [23] = test system: U251; details: Homo sapiens, U-251, read-out: Cell growth inhibition %
# Outline: as §1
# [24] = test system: 786-0; details: Homo sapiens, read-out: Cell growth inhibition %
# Outline: as §1
# [25] = test system: CAKI-1; details: Homo sapiens, read-out: Cell growth inhibition %
# Outline: as §1
# [26] = test system: SF-539; details: Homo sapiens, read-out: Cell growth inhibition %
# Outline: as §1
# [27] = test system: NCI-H460; details: Homo sapiens, read-out: Cell growth inhibition %
# Outline: as §1
# [28] = test system: HOP-92; details: Homo sapiens, read-out: Cell growth inhibition %
# Outline: as §1
# [29] = test system: DU-145; details: Homo sapiens, read-out: Cell growth inhibition %
# Outline: as §1
# [30] = HCC-2998, Colon cancer, NCI one dose
# [31] = NCI-H226, Non-Small Cell Lung Cancer, NCI one dose
# [32] = KM12, Colon cancer, NCI one dose
# [33] = ACHN, Renal cancer, NCI one dose
# [34] = NCI-H322M, Non-Small Cell Lung Cancer, NCI one dose
# [35] = SW-620, Colon cancer, NCI one dose
# [36] = HL-60(TB), Leukemia, NCI one dose
# [37] = SF-295, CNS Cancer, NCI one dose
# [38] = SNB-19, CNS Cancer, NCI one dose
# [39] = SK-MEL-5, Melanoma, NCI one dose
# [40] = OVCAR-3, Ovarian Cancer, NCI one dose
# [41] = MDA-MB-468, Breast cancer, NCI one dose
# [42] = HT29, Colon cancer, NCI one dose
# [43] = TK-10, Renal cancer, NCI one dose
# [44] = MDA-MB-231/ATCC, Breast cancer, NCI one dose
# [45] = SF-268, CNS Cancer, NCI one dose
# [46] = NCI/ADR-RES, Ovarian Cancer, NCI one dose
# [47] = OVCAR-4, Ovarian Cancer, NCI one dose
# [48] = A498, Renal cancer, NCI one dose
# [49] = NCI-H23, Non-Small Cell Lung Cancer, NCI one dose
# [50] = 786-0, Renal cancer, NCI one dose
# [51] = CAKI-1, Renal cancer, NCI one dose
# [52] = SF-539, CNS Cancer, NCI one dose
# [53] = NCI-H460, Non-Small Cell Lung Cancer, NCI one dose
# [54] = HOP-92, Non-Small Cell Lung Cancer, NCI one dose
# [55] = DU-145, Prostate Cancer, NCI one dose
structure (smiles),measurement,setting,value
"O=C(CSc1nnc(-c2ccc3[nH]c(-c4ccc(Cl)cc4)nc3c2)o1)Nc1ccc(C(=O)/C=C/c2ccccc2)cc1 [Compound 7f, 2-{5-[2-(4-Chlorophenyl)-1 H-benzo[d]imidazol-5-yl]-1,3,4-oxadiazol-2-ylthio}-N-{4-[(E)-3-phenylacryloyl]phenyl}acetamide]",inhibition at 10 µM,"[1]; HCC-2998 (Colon Cancer), NCI one dose 10 µM",0%
same,inhibition at 10 µM,"[2]; NCI-H226 (Non-Small Cell Lung Cancer), NCI one dose 10 µM",2.19%
same,inhibition at 10 µM,"[3]; KM12 (Colon Cancer), NCI one dose 10 µM",0%
same,inhibition at 10 µM,"[4]; ACHN (Renal Cancer), NCI one dose 10 µM",0%
same,inhibition at 10 µM,"[5]; NCI-H322M (Non-Small Cell Lung Cancer), NCI one dose 10 µM",0%
same,inhibition at 10 µM,"[6]; SW-620 (Colon Cancer), NCI one dose 10 µM",0%
same,inhibition at 10 µM,"[7]; LOX IMIV (Melanoma), NCI one dose 10 µM",22.9%
same,inhibition at 10 µM,"[8]; HL-60(TB) (Leukemia), NCI one dose 10 µM",0%
same,inhibition at 10 µM,"[9]; SF-295 (CNS Cancer), NCI one dose 10 µM",0%
same,inhibition at 10 µM,"[10]; SNB-19 (CNS Cancer), NCI one dose 10 µM",0%
same,inhibition at 10 µM,"[11]; SR (Leukemia), NCI one dose 10 µM",15.2%
same,inhibition at 10 µM,"[12]; SK-MEL-5 (Melanoma), NCI one dose 10 µM",0.99%
same,inhibition at 10 µM,"[13]; OVCAR-3 (Ovarian Cancer), NCI one dose 10 µM",0%
same,inhibition at 10 µM,"[14]; MDA-MB-468 (Breast Cancer), NCI one dose 10 µM",0%
same,inhibition at 10 µM,"[15]; HT29 (Colon Cancer), NCI one dose 10 µM",0%
same,inhibition at 10 µM,"[16]; TK-10 (Renal Cancer), NCI one dose 10 µM",0%
same,inhibition at 10 µM,"[17]; MDA-MB-231/ATCC (Breast Cancer), NCI one dose 10 µM",2.18%
same,inhibition at 10 µM,"[18]; SF-268 (CNS Cancer), NCI one dose 10 µM",0%
same,inhibition at 10 µM,"[19]; NCI/ADR-RES (Ovarian Cancer), NCI one dose 10 µM",0%
same,inhibition at 10 µM,"[20]; OVCAR-4 (Ovarian Cancer), NCI one dose 10 µM",0%
same,inhibition at 10 µM,"[21]; A498 (Renal Cancer), NCI one dose 10 µM",0%
same,inhibition at 10 µM,"[22]; NCI-H23 (Non-Small Cell Lung Cancer), NCI one dose 10 µM",0%
same,inhibition at 10 µM,"[23]; U251 (CNS Cancer), NCI one dose 10 µM",3.23%
same,inhibition at 10 µM,"[24]; 786-0 (Renal Cancer), NCI one dose 10 µM",0%
same,inhibition at 10 µM,"[25]; CAKI-1 (Renal Cancer), NCI one dose 10 µM",1.83%
same,inhibition at 10 µM,"[26]; SF-539 (CNS Cancer), NCI one dose 10 µM",2.1%
same,inhibition at 10 µM,"[27]; NCI-H460 (Non-Small Cell Lung Cancer), NCI one dose 10 µM",0%
same,inhibition at 10 µM,"[28]; HOP-92 (Non-Small Cell Lung Cancer), NCI one dose 10 µM",0%
same,inhibition at 10 µM,"[29]; DU-145 (Prostate Cancer), NCI one dose 10 µM",0%
"COc1ccc(-c2nc3cc(-c4nnc(SCC(=O)Nc5ccc(C(=O)/C=C/c6ccccc6)cc5)o4)ccc3[nH]2)cc1 [Compound 7k, 2-{5-[2-(4-Methoxyphenyl)-1 H-benzo[d]imidazol-5-yl]-1,3,4-oxadiazol-2-ylthio}-N-{4-[(E)-3-phenylacryloyl]phenyl}acetamide]",inhibition at 10 µM,[1]; [30],0%
same,inhibition at 10 µM,[2]; [31],35.4%
same,inhibition at 10 µM,[3]; [32],15.6%
same,inhibition at 10 µM,[4]; [33],7.59%
same,inhibition at 10 µM,[5]; [34],0%
same,inhibition at 10 µM,[6]; [35],0%
same,activity at 10 µM,[7],14.9%
same,inhibition at 10 µM,"[7]; Melanoma, NCI one dose",85.1%
same,inhibition at 10 µM,[8]; [36],28.7%
same,inhibition at 10 µM,[9]; [37],17.8%
same,inhibition at 10 µM,[10]; [38],0%
same,inhibition at 10 µM,"[11]; SR, Leukemia, NCI one dose",51.6%
same,inhibition at 10 µM,[12]; [39],49.2%
same,inhibition at 10 µM,[13]; [40],0%
same,inhibition at 10 µM,[14]; [41],19.5%
same,inhibition at 10 µM,[15]; [42],14.1%
same,inhibition at 10 µM,[16]; [43],0%
same,inhibition at 10 µM,[17]; [44],22.5%
same,inhibition at 10 µM,[18]; [45],17.1%
same,inhibition at 10 µM,[19]; [46],10.3%
same,inhibition at 10 µM,[20]; [47],19.1%
same,inhibition at 10 µM,[21]; [48],19.9%
same,inhibition at 10 µM,[22]; [49],16.9%
same,inhibition at 10 µM,"[23]; U251, CNS Cancer, NCI one dose",33.2%
same,inhibition at 10 µM,[24]; [50],41.2%
same,inhibition at 10 µM,[25]; [51],14.1%
same,inhibition at 10 µM,[26]; [52],27.5%
same,inhibition at 10 µM,[27]; [53],6.61%
same,inhibition at 10 µM,[28]; [54],20.3%
same,inhibition at 10 µM,[29]; [55],9.04%
"COc1ccc(-c2nc3cc(-c4nnc(SCC(=O)Nc5ccc(C(=O)/C=C/c6ccc(Cl)cc6)cc5)o4)ccc3[nH]2)cc1 [Compound 7l, 2-{5-[2-(4-Methoxyphenyl)-1 H-benzo[d]imidazol-5-yl]-1,3,4-oxadiazol-2-ylthio}-N-{4-[(E)-3-(4-chlorophenyl)acryloyl]phenyl}acetamide]",inhibition at 10 µM,[1]; [30],0%
same,inhibition at 10 µM,[2]; [31],5.85%
same,inhibition at 10 µM,[3]; [32],0%
same,inhibition at 10 µM,[4]; [33],2.31%
same,inhibition at 10 µM,[5]; [34],0%
same,inhibition at 10 µM,[6]; [35],3.03%
same,activity at 10 µM,[7],-29.9%
same,inhibition at 10 µM,"[7]; Melanoma, NCI one dose",130%
same,inhibition at 10 µM,[8]; [36],5.86%
same,inhibition at 10 µM,[9]; [37],4.12%
same,inhibition at 10 µM,[10]; [38],0%
same,inhibition at 10 µM,"[11]; SR, Leukemia, NCI one dose",31.8%
same,inhibition at 10 µM,[12]; [39],1.12%
same,inhibition at 10 µM,[13]; [40],0%
same,inhibition at 10 µM,[14]; [41],1.89%
same,inhibition at 10 µM,[15]; [42],0%
same,inhibition at 10 µM,[16]; [43],0%
same,inhibition at 10 µM,[17]; [44],5.19%
same,inhibition at 10 µM,[18]; [45],5.15%
same,inhibition at 10 µM,[19]; [46],0%
same,inhibition at 10 µM,[20]; [47],0%
same,inhibition at 10 µM,[21]; [48],15.7%
same,inhibition at 10 µM,[22]; [49],5.55%
same,inhibition at 10 µM,"[23]; U251, CNS Cancer, NCI one dose",5.67%
same,inhibition at 10 µM,[24]; [50],0.91%
same,inhibition at 10 µM,[25]; [51],2.8%
same,inhibition at 10 µM,[26]; [52],12.9%
same,inhibition at 10 µM,[27]; [53],0%
same,inhibition at 10 µM,[28]; [54],5.04%
same,inhibition at 10 µM,[29]; [55],0%
